{
  "source": "paper PMC3230782",
  "about": "(Peptides, 2011)",
  "key": {"[1]": {"conditions": "earlier work; 30 (EMTPVNPG); 29 (AFPep); cited from earlier work"}, "[2]": {"system": "estrogen-stimulated growth of the immature mouse uterus", "conditions": "30 (EMTPVNPG), 29 (AFPep); cited from earlier work"}, "[3]": {"system": "estrogen-stimulated growth of the immature mouse uterus", "test": "immature mouse uterine growth inhibition assay", "type": "in vivo, mouse (Swiss Webster female)", "conditions": "for effect on the growth inhibition activity of AFPep when combined: combination with AFPep (Figure 2A, 2C); for dose-response behaviour of inhibition of estrogen-stimulated uterine growth: peptide alone, range of doses i.p. (Figure 1)"}},
  "data": [
    {"substance": "EMTPVNPG", "values": [
      {"measurement": "shelf life", "setting": "[1]", "value": "very short shelf life"},
      {"measurement": "dose-response behaviour in anti-estrotrophic assay (earlier work)", "setting": "[2]", "value": "biphasic dose-response curve"}
    ]},
    {"substance": "cyclo[EKTOVGOGN] FS (lariat or depsi)", "values": [
      {"measurement": "effect on the growth inhibition activity of AFPep when combined", "setting": "[3]", "value": "enhanced the activity of AFPep"},
      {"measurement": "dose-response behaviour of inhibition of estrogen-stimulated uterine growth", "setting": "[3]", "value": "no activity at any dose"}
    ]},
    {"substance": "cyclo[EKTOVNOGN] FS (lariat or depsi)", "values": [
      {"measurement": "effect on the growth inhibition activity of AFPep when combined", "setting": "[3]", "value": "decreased the activity of AFPep"},
      {"measurement": "dose-response behaviour of inhibition of estrogen-stimulated uterine growth", "setting": "[3]", "value": "little activity at any dose"}
    ]}
  ]
}
